Experiments:
PDE4B = target: T1, PDE4B (Homo sapiens, UniProt Q07343); assay: Coupled PDE/AK bioluminescent assay of PDE inhibition; type: biochemical; conditions: PDE4B catalytic domain
T1 construct: hex-histidine (His6) (N); made in house
Source text: Phosphodiesterases regulate the activity of the second messenger cyclic adenosine monophosphate (cAMP) by hydrolyzing cAMP to adenosine monophosphate (AMP). We developed a novel coupled PDE/AK bioluminescent high-throughput assay to measure the activity of phosphodiesterases. In the PDE/AK assay, the AMP produced from the hydrolysis of cAMP by phosphodiesterase is converted to adenosine diphosphate (ADP) by the phosphotransferase activity of adenylate kinase (also known as ADK or myokinase). Adenylate kinase will catalyze the conversion of 1 mole of AMP and 1 mole of ATP into 2 moles of ADP. Thus the conversion of AMP to ADP will result in the subsequent loss of ATP. The decrease in ATP concentration can be monitored as light output using luciferase in a reaction that requires ATP to produce light. The PDE/AK assay uses luciferase, which catalyzes the production of light from ATP present in the reaction mix. The amount of emitted light is inversely proportional to the level of AMP present in the reaction. Test compounds are incubated with the phosphodiesterases and phosphodiesterase inhibitors will decrease the rate of cAMP hydrolysis and decrease the subsequent production of AMP. Thus phosphodiesterase inhibitors will decrease the conversion of ATP to ADP and result in the greatest emission of light.
Compounds may be screened for functional potency in in vitro biochemical assays for their ability to inhibit the activity of phosphodiesterase (PDE) enzymes. A novel coupled PDE/AK assay was utilized to measure the inhibitory activity of compounds on PDE isoforms. The catalytic domain of PDE4B was fused to an amino-terminus hex-histidine affinity tag and purified. PDE4B enzyme was incubated with compounds for 10 minutes. Cyclic AMP substrate, ATP and adenylate kinase were then added to the PDE enzyme mix and incubated for 45 minutes at room temperature. A commercial ATP detection assay, Perkin Elmer's easyLite ATP detection reagent, was then added to measure the relative amount of ATP present in the reaction. After […], the luminescent signal was quantitated with either the Perkin Elmer Viewlux or Molecular Devices Acquest or Analyst. Roflumilast and Rolipram are the positive controls used in the assay.

[1] = system: Lacrimal Gland Inflammation-Induced Dry Eye in Rabbits; assay: Lacrimal gland inflammation-induced dry eye in rabbits (corneal staining, tear breakup time); type: in vivo; conditions: topical ocular BID; for Activity at Percent Concentration Tested 1 × 10^−2: 1 × 10^−2 percent concentration; for Activity at Percent Concentration Tested 1 × 10^−4: 1 × 10^−4 percent concentration; for Activity at Percent Concentration Tested 1 × 10^−6: 1 × 10^−6 percent concentration
Source text: A more detailed description of the assay used herein may be found in Naglehout, T J et al. 2005, “Preservation of Tear Film Integrity and Inhibition of Corneal Injury by Dexamethasone in a Rabbit Model of Lacrimal Gland Inflammation-Induced Dry Eye,” J. Ocular Pharm. Ther., 21:2. 139-148, the disclosure of which is hereby incorporated by reference as if written herein in its entirety.
Rabbits (n=4/group) were randomized into treatment groups and dosed topically BID with maxidex vehicle or test drug beginning one day prior to initiation of dry eye. Each rabbit received bilateral lacrimal gland injections of saline or ConA (300 μg/30 μl) and topical ocular dosing was continued BID throughout the study.
Desiccation was initiated 1-2 hours following lacrimal gland injection by placing conscious rabbits in the environmental chamber (10-15% humidity/72° F.). Following 72 consecutive hours of exposure to this dry environment, the animals were anesthetized and sutures were placed in each upper and lower eyelid and lifted to form a corneal/conjunctival cup. Methylene blue dye (1 mL, 1% in dH2O) was added to the cup for three minutes and the excess removed by washing with 200 mL BSS®. The contralateral eye was then stained using the same procedure. Rabbits were euthanized immediately following the staining procedure and the eyes were excised. The corneas were isolated with a trephine and the 9.5-mm punch of the cornea was placed in 2 mL acetone/saturated sodium sulfate (7:3, vol./vol.). Absorbance of the extracted dye was determined at 660 nm.
TBUT was quantified in a separate group of treated animals. TBUT was determined by instilling 5 μL sodium fluorescein into the cul de sac and manually blinking the lids to distribute the fluorescein within the tear film. Under slit lamp observation, the eye was held open and the time whereby one or more black spots or streaks appeared in the precorneal tear film was recorded. The rabbits were euthanized 3 days following ConA injection.

T1 sequence (Q07343 330-659 limits assumed, species assumed): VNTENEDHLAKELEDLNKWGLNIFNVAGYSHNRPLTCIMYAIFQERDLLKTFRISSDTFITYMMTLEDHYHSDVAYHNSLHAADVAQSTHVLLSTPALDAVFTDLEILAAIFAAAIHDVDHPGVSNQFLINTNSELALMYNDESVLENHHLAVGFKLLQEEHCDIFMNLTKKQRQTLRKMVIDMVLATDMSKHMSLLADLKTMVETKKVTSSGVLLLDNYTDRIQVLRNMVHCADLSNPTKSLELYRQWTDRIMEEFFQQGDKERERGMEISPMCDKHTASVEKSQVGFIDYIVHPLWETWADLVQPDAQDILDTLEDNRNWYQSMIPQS

Row | Compound | IC50 (PDE4B) | further results
1 | COc1ccc2c(Nc3c(Cl)cncc3Cl)cc(=O)[nH]c2c1OC1CCCC1 [Example 1, 8-(Cyclopentyloxy)-4-(3,5-dichloropyridin-4-ylamino)-7-methoxyquinolin-2(1H)-one] | ≤ 1000 nM | Activity at Percent Concentration Tested 1 ([1]; 1 percent concentration): Inactive; Activity at Percent Concentration Tested 1 × 10^−1 ([1]; 1 × 10^−1 percent concentration): Inactive; Activity at Percent Concentration Tested 1 × 10^−2 [1]: Inactive
2 | COc1ccc2c(Oc3c(Cl)cncc3Cl)cc(=O)[nH]c2c1OC1CCCC1 [Example 2, 8-(Cyclopentyloxy)-4-(3,5-dichloropyridin-4-yloxy)-7-methoxyquinolin-2(1H)-one] | ≤ 1000 nM | –
3 | COc1ccc2c(Nc3c(Cl)cncc3Cl)cc(=O)[nH]c2c1OCC1CC1 [Example 3, 8-(Cyclopropylmethoxy)-4-(3,5-dichloropyridin-4-ylamino)-7-methoxyquinolin-2(1H)-one] | ≤ 1000 nM | –
4 | COc1ccc2c(Nc3c(Cl)cncc3Cl)cc(=O)n(C)c2c1OC1CCCC1 [Example 4, 8-(Cyclopentyloxy)-4-(3,5-dichloropyridin-4-ylamino)-7-methoxy-1-methylquinolin-2(1H)-one] | ≤ 1000 nM | –
5 | COc1ccc2c(Nc3c(C)cncc3C)cc(=O)[nH]c2c1OC1CCCC1 [Example 5, 8-(Cyclopentyloxy)-4-(3,5-dimethylpyridin-4-ylamino)-7-methoxyquinolin-2(1H)-one] | ≤ 1000 nM | Activity at Percent Concentration Tested 1 × 10^−2 [1]: Inactive; Activity at Percent Concentration Tested 1 × 10^−4 [1]: Inactive; Activity at Percent Concentration Tested 1 × 10^−6 [1]: Inactive
6 | COc1ccc2c(Nc3c(Cl)cncc3Cl)c(Br)c(=O)n(Br)c2c1OC1CCCC1 [Example 6, 1,3-Dibromo-8-(cyclopentyloxy)-4-(3,5-dichloropyridin-4-ylamino)-7-methoxyquinolin-2(1H)-one] | ≤ 1000 nM | –
7 | COc1ccc2c(Nc3c(Cl)cncc3Cl)c(Br)c(=O)[nH]c2c1OC1CCCC1 [Example 7, 3-Bromo-8-(cyclopentyloxy)-4-(3,5-dichloropyridin-4-ylamino)-7-methoxyquinolin-2(1H)-one] | ≤ 1000 nM | –
8 | COc1ccc2c(Nc3c(C)cncc3C)cc(=O)[nH]c2c1OCC1CC1 [Example 8, 8-(Cyclopropylmethoxy)-4-(3,5-dimethylpyridin-4-ylamino)-7-methoxyquinolin-2(1H)-one] | ≤ 1000 nM | Activity at Percent Concentration Tested 1 × 10^−2 [1]: Inactive; Activity at Percent Concentration Tested 1 × 10^−4 [1]: Inactive; Activity at Percent Concentration Tested 1 × 10^−6 [1]: Inactive
9 | COc1ccc2c(Nc3c(Cl)cncc3Cl)cc(=O)n(CCO)c2c1OC1CCCC1 [Example 9, 8-(Cyclopentyloxy)-4-(3,5-dichloropyridin-4-ylamino)-1-(2-hydroxyethyl)-7-methoxyquinolin-2(1H)-one] | ≤ 1000 nM | –
10 | COc1ccc2c(Nc3c(Cl)cncc3Cl)cc(=O)n(CCN(C)C)c2c1OC1CCCC1 [Example 10, 8-(Cyclopentyloxy)-4-(3,5-dichloropyridin-4-ylamino)-1-(2-(dimethylamino)ethyl)-7-methoxyquinolin-2(1H)-one] | ≤ 1000 nM | –
11 | COc1ccc2c(Nc3c(Cl)cncc3Cl)cc(=O)[nH]c2c1OCCCCCC(=O)O [Example 11, 6-(4-(3,5-Dichloropyridin-4-ylamino)-7-methoxy-2-oxo-1,2-dihydroquinolin-8-yloxy)hexanoic acid] | ≤ 1000 nM | –
12 | COc1ccc2c(Nc3c(C)cncc3C)cc(=O)[nH]c2c1OCC(C)C [Example 12, 4-(3,5-Dimethylpyridin-4-ylamino)-8-isobutoxy-7-methoxyquinolin-2(1H)-one] | ≤ 1000 nM | –
13 | COc1ccc2c(Nc3c(Cl)cncc3Cl)cc(=O)[nH]c2c1OCCCCN(C)C [Example 13, 4-(3,5-Dichloropyridin-4-ylamino)-8-(4-(dimethylamino)butoxy) -7-methoxyquinolin-2(1H)-one] | ≤ 1000 nM | –
14 | COc1ccc2c(Nc3c(Cl)cncc3Cl)cc(=O)[nH]c2c1OCCCCCN(C)C [Example 14, 4-(3,5-Dichloropyridin-4-ylamino)-8-(5-(dimethylamino)pentyloxy)-7-methoxyquinolin-2(1H)-one] | ≤ 1000 nM | –
